Literature values, collected in patent US12410171B2, “Tropomyosin receptor kinase (TRK) degradation compounds and methods of use” (Cullgen (Shanghai), Inc., priority 2020, dated 2025).

Test system: TRK-fusions
Conditions: phase 2 results, cited from earlier work

O=C(Nc1cnn2ccc(N3CCC[C@@H]3c3cc(F)ccc3F)nc12)N1CC[C@H](O)C1 [larotrectinib]
patient remained progression-free at 1 year (at 1 year): 55% | patients responded to the therapy (patients with TRK-fusions): 75%
